The values below come from patent US20110237679A1, “NOVEL ANTIVIRAL COMPOUNDS, COMPOSITIONS, AND METHODS OF USE” (CYTOKINE PHARMASCIENCES, INC., priority 2008, published 2011).

The assay can be described thus: in vitro activity comparison (FIG. 1). The format is cell-based. The following applies: relative to ITI-367.

As to `COc1ccccc1C(=Nc1cccc(C(F)(F)F)c1)NO` [CPSI-00220, N-hydroxy-2-methoxy-N′-(3-trifluoromethyl-phenyl)-benzamidine], the “effectiveness in vitro compared with ITI-367” value is on record as “equally (and possibly more) as effective as ITI-367”.
